In patent US20150259294A1, “METHOD OF PLANT GROWTH PROMOTION USING CARBOXAMIDE DERIVATIVES” (BAYER CROPSCIENCE AG, priority 2012, published 2015):

How the values were obtained:
wheat leave discs = experiment: Chlorophyll preservation bioassay in wheat leave discs; conditions: for Chlorophyll content (%): wheat leave discs at 4 dpt vs control at 0 dpt; for colour of leave discs at the end of the experiment: wheat and barley leave discs, 3 or 4 dpt in the dark
Protocol: (§1) To confirm the greening effect of compounds of formula (I) according to the invention observed in field trials, a simple bioassay was set up using wheat and barley. Discs of 1 cm of diameter were cut within leaves collected from 4 weeks old plants and deep at room temperature in water for 1 hour to allow ethylene produced after wound injury to dissipate. Control samples were produced dipping leave discs for 15 min in a solution of 5% DMSO-10% acetone-0.005% tween80 (bioassay formulation), immediately frozen (control 0 day post treatment-dpt) or deposited on Whatmann filter paper soaked by the bioassay formulation, in Petri dishes, […] Leaves discs treated with test compound were processed in the same way. In this case, leave discs were deep for 15 minutes in test compound solution and left to incubate on filter paper soaked with the corresponding test solution. Compounds of formula (I) according to the invention were tested in EC100 formulation unless otherwise specified; Other SDHI fungicides (Fluxapyroxad, Isopyrazam and Hambra) were tested in their respective field formulations.
(§2) Leave discs were frozen in liquid nitrogen and ground prior to chlorophyll extraction with 1 mL of an acetone-water (80-20 vol/vol) solution and chlorophyll concentration evaluation at 663 nm. Percentages of chlorophyll content in 3 or 4 dpt controls and corresponding treated samples were reported to the chlorophyll content measured in 0 dpt controls.

barley leave discs = experiment: Chlorophyll preservation bioassay in barley leave discs; conditions: barley leaves at 3 dpt vs control at 0 dpt
Protocol: as §1, §2

soybean cultivar BRS 245 = experiment: Soybean seed treatment field trial: development and yield; format: in vivo; conditions: for Plant Height (cm)/%: 050 SC, 42 days after planting, untreated control 33 cm = 100%; for Weight Root (g)/% / Weight Dry Plant (g)/%: 49 days after planting; for Weight Root (g)/%: untreated control 10 g = 100%; for Weight Dry Plant (g)/%: untreated control 46 g = 100%; for Grain Yield (dt)/%: untreated control 28 dt = 100%; for Weight of 1000 Grains (g)/%: untreated control 125 g = 100%
Protocol: Seeds of the Brazilian soybean cultivar BRS 245 were treated with compound A5: […] The product was applied as 050 SC with rates of 25 and 100 g a.i./dt. The field trial was set up in an experimental station close to Paulinia, S. P., in Brazil, in February 2012. […] Fertilization, herbicide- and insecticide applications were carried out according to the local agricultural practice. 42 days after planting plant height, 49 days after planting the dry weight of both entire green plants and the roots were measured. This trial was done under almost disease free conditions (“Asian Soybean Rust” Phakopsora pachyrhizi arrived about month after planting with a very low severity).

[1] = tested on: winter wheat variety Dekan; experiment: Foliar application field trial Laacherhof: yield of winter wheat; format: in vivo; conditions: 50 g a.i./ha, sprayed threefold at BBCH 31, 39 and 69, 100EC formulation with adjuvant; for Grain Yield (dt/ha): untreated control 86.25
Protocol: (§3) The field trial in winter wheat was conducted in the experimental station “Laacherhof” in Germany in spring/summer 2012.
(§4) Seeds of the winter wheat variety “Dekan” were planted on Oct. 17, 2011. Fertilization, herbicide- and plant growth regulator applications were carried out according to the local agricultural practice. Additionally, a cover spray with “Pronto Plus” was carried out at BBCH-growth stage 51 in order to keep brown rust (Puccinia triticina) out of the field trial (trial under pathogen-free conditions). The trial was conducted with 3 replicates and the replicates 2 and 3 were randomized. The plot size was 8.8 m^2.
(§5) Compounds A5 (N-(5-chloro-2-isopropylbenzyl)-N-cyclopropyl-3-(difluoromethyl)-5-fluoro-1-methyl-1H-pyrazole-4-carboxamide), A7 (N-cyclopropyl-3-(difluoromethyl)-5-fluoro-N-(5-fluoro-2-isopropylbenzyl)-1-methyl-1H-pyrazole-4-carboxamide), A12 (N-cyclopropyl-3-(difluoromethyl)-5-fluoro-N-(2-isopropyl-5-methylbenzyl)-1-methyl-1H-pyrazole-4-carboxamide) and A10 (N-cyclopropyl-3-(difluoromethyl)-5-fluoro-N-(2-fluoro-6-isopropylbenzyl)-1-methyl-1H-pyrazole-4-carboxamide) were sprayed threefold at BBCH-growth stages 31, 39 and 69 with an use rate of 50 g a.i./ha. All compounds were applied as 100EC formulation adding an adjuvant.
The winter wheat was harvested on Aug. 3, 2012.

[2] = tested on: winter wheat variety Dekan; experiment: Foliar application field trial Laacherhof: greening effect in winter wheat; format: in vivo; conditions: 50 g a.i./ha, sprayed threefold at BBCH 31, 39 and 69; percentage of the color green; untreated control 21.7
Protocol: as §3, §4, §5
The greening effect of the single treatments was evaluated on Jul. 6, 2012.

[3] = tested on: winter wheat variety Dekan; experiment: Foliar application field trial Höfchen: green leaves and yield in winter wheat; format: in vivo; conditions: for Greening Effect (%): 100 EC, assessed at EC 85, 38 days after second application, untreated control 0; for Grain Yield (dt/ha): untreated control 85
Protocol: The field trial was conducted in the experimental station “Höfchen” in Germany in spring 2012. Winter wheat, variety “Dekan”, was planted on October 2011. Fertilization, herbicide- and plant growth regulator applications were carried out according to the local agricultural practice.
The trial was conducted with 4 replicates. Plot size was 12 m^2 and there were four replicates.
Compound A5 was applied as a 100 EC formulation with rates of 37 and 75 g a.i./ha twice in the growing season at BBCH-growth stages EC 33 and 55.
The effect on the green foliage was assessed on July 2012, 38 days after the second application, at growth stage EC 85, (see table 6).
(§6) The trial was harvested on August 2012.

[4] = tested on: winter wheat variety Akteur; experiment: Foliar application field trial Langfoerden (FA12DSD559XJE1): yield in winter wheat; format: in vivo; conditions: for Grain Yield (dt/ha): 100 EC, disease free, untreated control 62
Protocol: The field trial FA12DSD559XJE1 was conducted in the experimental station “Langfoerden” in Germany in spring 2012.
Winter wheat, variety “Akteur”, was planted on November 2011. Fertilization, herbicide- and plant growth regulator applications were carried out according to the local agricultural practice.
The trial was conducted with 4 replicates. Plot size was 16 m^2 and there were four replicates.
Compound A5 was applied as a 100 EC formulation with rates of 37 and 75 g a.i./ha twice in the growing season at BBCH-growth stages EC 33 and 61.
In this trial there was no significant disease severity assessed. It can be considered as disease free.
as §6

corn = experiment: Foliar application field trial USA (FA12NARS4CUJX1): green foliage and yield in corn; format: in vivo; conditions: for Greening Effect (%): 100 EC, green foliage of corn at EC 79, untreated control 43; for Grain Yield (dt/ha): untreated control 39.5
Protocol: The field trial FA12NARS4CUJX1 was conducted in the USA (IA, 50046 Cambridge) in spring 2012.
The crop was planted on April 2012. Fertilization and herbicide applications were carried out according to the local agricultural practice.
The trial was conducted with 4 replicates. Plot size was 80 m^2 and there were four replicates.
Compound A5 was applied as a 100 EC formulation with rates of 20 and 50 g a.i./ha twice in the growing season at BBCH-growth stages EC 15 and 61.
In this trial there was no significant leaf disease severity assessed (Kabatiella zeae pest severity below 5%). It can be considered as almost disease free.
The trial was harvested on September 2012.

[5] = formula (I) compounds in EC100 formulation, other SDHI in field formulations
[6] = 37 g a.i./ha twice (EC 33 and 55)
[7] = 75 g a.i./ha twice (EC 33 and 55)
[8] = 37 g a.i./ha twice (EC 33 and 61)
[9] = 75 g a.i./ha twice (EC 33 and 61)
[10] = 20 g a.i./ha twice (EC 15 and 61)
[11] = 50 g a.i./ha twice (EC 15 and 61)

Structure (SMILES): CC(C)c1ccccc1CN(C(=O)c1c(C(F)F)nn(C)c1F)C1CC1 [Compound A1, N-cyclopropyl-3-(difluoromethyl)-5-fluoro-N-(2-isopropylbenzyl)-1-methyl-1H-pyrazole-4-carboxamide]
- Chlorophyll content (%) (wheat leave discs; [5]): 87%

Structure (SMILES): CC(C)c1ccc(Cl)cc1CN(C(=O)c1c(C(F)F)nn(C)c1F)C1CC1 [Compound A5, N-(5-chloro-2-isopropylbenzyl)-N-cyclopropyl-3-(difluoromethyl)-5-fluoro-1-methyl-1H-pyrazole-4-carboxamide]
- Chlorophyll content (%) (wheat leave discs; [5]): 78%
- Chlorophyll content (%) (barley leave discs; [5]): 55%
- Plant Height (cm)/% (soybean cultivar BRS 245; seed treatment 25 g a.i./dt): 105%
- Weight Root (g)/% (soybean cultivar BRS 245; seed treatment 25 g a.i./dt): 117%
- Weight Dry Plant (g)/% (soybean cultivar BRS 245; seed treatment 25 g a.i./dt): 107%
- Grain Yield (dt)/% (soybean cultivar BRS 245; seed treatment 25 g a.i./dt): 112%
- Weight of 1000 Grains (g)/% (soybean cultivar BRS 245; seed treatment 25 g a.i./dt): 103%
- Plant Height (cm)/% (soybean cultivar BRS 245; seed treatment 100 g a.i./dt): 105%
- Weight Root (g)/% (soybean cultivar BRS 245; seed treatment 100 g a.i./dt): 103%
- Weight Dry Plant (g)/% (soybean cultivar BRS 245; seed treatment 100 g a.i./dt): 108%
- Grain Yield (dt)/% (soybean cultivar BRS 245; seed treatment 100 g a.i./dt): 111%
- Weight of 1000 Grains (g)/% (soybean cultivar BRS 245; seed treatment 100 g a.i./dt): 105%
- impact on development and yield of soybean (in words) (soybean cultivar BRS 245; seed treatment, almost disease free conditions): clearly stimulates the physiological development of soybean plants and boosts both grain yield and the grain weight
- Grain Yield (% of Untreated Control) [1]: 120%
- Grain Yield (dt/ha) [1]: 103.1 dt/ha
- Greening Effect (%) [2]: 26.7%
- Grain Yield (% of Untreated Control) [3, 6]: 128%
- Greening Effect (%) [3, 6]: 54%
- Grain Yield (dt/ha) [3, 6]: 109 dt/ha
- Grain Yield (% of Untreated Control) [3, 7]: 136%
- Greening Effect (%) [3, 7]: 86%
- Grain Yield (dt/ha) [3, 7]: 115 dt/ha
- effect on maintenance of green leaves in winter wheat (in words) ([3]; foliar sprays): clearly has an effect on the maintenance of the green leaves shortly before harvest
- Grain Yield (% of Untreated Control) [4, 8]: 117%
- Grain Yield (dt/ha) [4, 8]: 72 dt/ha
- Grain Yield (% of Untreated Control) [4, 9]: 124%
- Grain Yield (dt/ha) [4, 9]: 76 dt/ha
- effect on grain yield in winter wheat (in words) ([4]; foliar sprays, practically disease-free): clearly has an effect on grain yield
- Grain Yield (% of Untreated Control) (corn; [10]): 123%
- Greening Effect (%) (corn; [10]): 59%
- Grain Yield (dt/ha) (corn; [10]): 48.5 dt/ha
- Grain Yield (% of Untreated Control) (corn; [11]): 131%
- Greening Effect (%) (corn; [11]): 63%
- Grain Yield (dt/ha) (corn; [11]): 51.8 dt/ha
- effect on maintenance of green leaves in corn (in words) (corn; foliar sprays): clearly has an effect on the maintenance of the green leaves shortly before harvest

Structure (SMILES): CC(C)c1ccc(F)cc1CN(C(=O)c1c(C(F)F)nn(C)c1F)C1CC1 [Compound A7, N-cyclopropyl-3-(difluoromethyl)-5-fluoro-N-(5-fluoro-2-isopropylbenzyl)-1-methyl-1H-pyrazole-4-carboxamide]
- Chlorophyll content (%) (wheat leave discs; tested in EC50 formulation): 83%
- Chlorophyll content (%) (barley leave discs; tested in EC50 formulation): 77%
- Grain Yield (% of Untreated Control) [1]: 115%
- Grain Yield (dt/ha) [1]: 99.4 dt/ha
- Greening Effect (%) [2]: 36.7%

Structure (SMILES): CC(C)c1cccc(F)c1CN(C(=O)c1c(C(F)F)nn(C)c1F)C1CC1 [Compound A10, N-cyclopropyl-3-(difluoromethyl)-5-fluoro-N-(2-fluoro-6-isopropylbenzyl)-1-methyl-1H-pyrazole-4-carboxamide]
- Chlorophyll content (%) (barley leave discs; [5]): 60%
- Grain Yield (% of Untreated Control) [1]: 116%
- Grain Yield (dt/ha) [1]: 99.9 dt/ha
- Greening Effect (%) [2]: 50.0%

Structure (SMILES): Cc1ccc(C(C)C)c(CN(C(=O)c2c(C(F)F)nn(C)c2F)C2CC2)c1 [Compound A12, N-cyclopropyl-3-(difluoromethyl)-5-fluoro-N-(2-isopropyl-5-methylbenzyl)-1-methyl-1H-pyrazole-4-carboxamide]
- Chlorophyll content (%) (wheat leave discs; [5]): 88%
- Chlorophyll content (%) (barley leave discs; [5]): 72%
- Grain Yield (% of Untreated Control) [1]: 110%
- Grain Yield (dt/ha) [1]: 94.9 dt/ha
- Greening Effect (%) [2]: 53.3%

Structure (SMILES): Cc1ccc(C(C)(C)C)c(CN(C(=O)c2c(C(F)F)nn(C)c2F)C2CC2)c1 [Compound A14, N-(2-tert-butyl-5-methylbenzyl)-N-cyclopropyl-3-(difluoromethyl)-5-fluoro-1-methyl-1H-pyrazole-4-carboxamide]
- Chlorophyll content (%) (barley leave discs; [5]): 77%

Structure (SMILES): Cn1cc(C(=O)Nc2ccccc2-c2cc(F)c(F)c(F)c2)c(C(F)F)n1 [Fluxapyroxad, reference compound]
- colour of leave discs at the end of the experiment (wheat leave discs): discolored
- Chlorophyll content (%) (wheat leave discs; [5]): 51%
- Chlorophyll content (%) (barley leave discs; [5]): 28%

Structure (SMILES): CC(C)C1C2CCC1c1c(NC(=O)c3cn(C)nc3C(F)F)cccc12 (stereo not drawn) [Isopyrazam, reference compound]
- colour of leave discs at the end of the experiment (wheat leave discs): discolored
- Chlorophyll content (%) (wheat leave discs; [5]): 49%
- Chlorophyll content (%) (barley leave discs; [5]): 32%
